For the assay, the target named is BTK (Homo sapiens, UniProt Q06187). The experiment in a line: biochemical.
Setting [1] is: read-out: BTK inhibition (%), 0.75 uM BTK, […] probe 3l, 15 min preincubation.

Read-outs that look alike come from different tables or passages of the source.

Chain of BTK (Q06187 402-655 limits assumed): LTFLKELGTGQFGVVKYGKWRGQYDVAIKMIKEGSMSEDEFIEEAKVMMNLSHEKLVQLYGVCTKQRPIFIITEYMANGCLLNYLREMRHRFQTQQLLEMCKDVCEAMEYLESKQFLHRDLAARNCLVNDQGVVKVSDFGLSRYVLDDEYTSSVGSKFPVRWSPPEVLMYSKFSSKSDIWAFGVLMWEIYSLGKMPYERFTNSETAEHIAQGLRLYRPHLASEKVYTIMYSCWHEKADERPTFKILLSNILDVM

Turning to `OC[C@@H](O)[C@@H](O)[C@H](O)[C@@H](O)CO` [PCM-0090796], under setting [1], the inhibition at 10 µM is -19.5%.

Consider `O=c1cc[nH]c(=S)[nH]1` [PCM-0090803], for which the inhibition at 10 µM under setting [1] was determined as 8.6%.

For the compound `C=CCNC(N)=S` [PCM-0090807], the inhibition at 10 µM under setting [1] was -18.7%.

With `CC1(C)CCC[C@]2(C)[C@H]3CC(=O)O[C@]3(C)CC[C@@H]12` [PCM-0090818], the inhibition at 10 µM under setting [1] was -18.7%.

On to `OC[C@@H](O)C(O)[C@@H](O)CO` (stereo partly drawn) [PCM-0090917], for which the inhibition at 10 µM under setting [1] was 2.3%.

On to `Cc1cc(O)c2c(c1)C(=O)c1cccc(O)c1C2=O` [PCM-0090919], for which, under setting [1], the inhibition at 10 µM is -4.8%.

Take `COc1cc(/C=C/C(=O)CC(=O)/C=C/c2ccc(O)c(OC)c2)ccc1O` [PCM-0091011]: under setting [1], the inhibition at 10 µM was 102%.

Take `O=c1[nH]cnc2nc[nH]c12` [PCM-0091022]: the inhibition at 10 µM under setting [1] is -22.1%.

`C/C=C1\[C@H]2C=C(C)C[C@]1(N)c1ccc(=O)[nH]c1C2` [PCM-0091027]: the inhibition at 10 µM under setting [1] was -24.7%.

Turning to `O=c1c2ccccc2oc2ccccc12` [PCM-0091091], the inhibition at 10 µM under setting [1] is -21%.

Turning to `C[C@H]1COC2=C1C(=O)C(=O)c1c2ccc2c1CCCC2(C)C` [PCM-0091097], the inhibition at 10 µM under setting [1] was 15.6%.

As for `COc1ccc(-c2cc(=O)c3c(OC)c(OC)c(OC)c(OC)c3o2)cc1OC` [PCM-0091108], the inhibition at 10 µM under setting [1] was 2.3%.

Regarding `OCc1c[nH]c2ccccc12` [PCM-0091140], the inhibition at 10 µM under setting [1] is -14%.

With `O=c1ccn([C@@H]2O[C@H](CO)[C@@H](O)[C@H]2O)c(=O)[nH]1` [PCM-0091168], the inhibition at 10 µM under setting [1] came out at 7.8%.

Take `C=CC(C)(O)CCC=C(C)C` (stereo not drawn) [PCM-0091203]: the inhibition at 10 µM under setting [1] is -9.3%.

For the compound `COc1ccc([C@@H]2CC(=O)c3c(O)cc(O)cc3O2)cc1O` [PCM-0091279], under setting [1], the inhibition at 10 µM was -11.7%.

Consider `NCCc1ccccc1` [PCM-0091318], for which the inhibition at 10 µM under setting [1] turned out to be 0%.

As for `Cc1coc2c1C(=O)C(=O)c1c-2ccc2c1CCCC2(C)C` [PCM-0091329], the inhibition at 10 µM under setting [1] was 16.3%.

In the case of `CN(C)Cc1c[nH]c2ccccc12` [PCM-0091332], under setting [1], the inhibition at 10 µM is -24.9%.

`COc1cc(OC)c(OC)cc1C=O` [PCM-0091340]: the inhibition at 10 µM (read-out: BTK inhibition (%)) was -12.4%.

As for `COc1ccc(C(C)=O)c(O)c1` [PCM-0091399], under setting [1], the inhibition at 10 µM worked out at 6.2%.

Take `CCc1c2c(nc3ccc(O)cc13)-c1cc3c(c(=O)n1C2)COC(=O)[C@]3(O)CC` [PCM-0091516]: under setting [1], the inhibition at 10 µM was -28.8%.

`OC[C@H]1O[C@@H](OCCc2ccc(O)cc2)[C@H](O)[C@@H](O)[C@@H]1O` [PCM-0094523]: the inhibition at 10 µM under setting [1] is -13.2%.

In the case of `OCc1ccc(O[C@@H]2O[C@H](CO)[C@@H](O)[C@H](O)[C@H]2O)cc1` [PCM-0094551], the inhibition at 10 µM under setting [1] was 17.9%.

On to `COc1ccc2ccc(=O)oc2c1CC=C(C)C` [PCM-0094564], for which the inhibition at 10 µM under setting [1] was -70%.

For the compound `C=C[C@@](C)(/C=C/c1ccc(O)cc1)CCC=C(C)C` [PCM-0094651], the inhibition at 10 µM under setting [1] is 6.9%.

On to `C=C[C@](C)(O)CC[C@@H]1[C@@]2(C)CCCC(C)(C)[C@@H]2CC[C@@]1(C)O` [PCM-0094807], for which the inhibition at 10 µM under setting [1] is -25.7%.

`CC(=O)C1=C(O)C=C2Oc3c(C(C)=O)c(O)c(C)c(O)c3[C@@]2(C)C1=O` [PCM-0094808]: the inhibition at 10 µM under setting [1] was 17.1%.

As to `O=C(O)C1=C[C@@H](O)[C@@H](O)[C@H](O)C1` [PCM-0094809], the inhibition at 10 µM under setting [1] turned out to be 10.1%.

On to `O=C(O)CCCc1c[nH]c2ccccc12` [PCM-0094810], for which the inhibition at 10 µM under setting [1] was -12.5%.

For `COc1cc(C2Oc3cc(C4Oc5cc(O)cc(O)c5C(=O)C4O)ccc3OC2CO)ccc1O` (stereo not drawn) [PCM-0094811], the inhibition at 10 µM under setting [1] stood at 66.1%.

For `C=C1CC[C@@H]2[C@](C)(CO)[C@H](O)CC[C@@]2(C)[C@@H]1C/C=C1/C(=O)OC[C@H]1O` [PCM-0094814], the inhibition at 10 µM under setting [1] was -6.2%.

With `Cc1coc2c1C(=O)C(=O)c1c-2ccc2c(C)cccc12` [PCM-0094815], the inhibition at 10 µM under setting [1] was -3.9%.

For `O=C1C[C@@H](c2ccc(O)cc2)Oc2cc(O)cc(O)c21` [PCM-0094816], the inhibition at 10 µM under setting [1] was found to be 3.9%.

In the case of `O=[N+]([O-])c1ncc[nH]1` [PCM-0094820], the inhibition at 10 µM (read-out: BTK inhibition (%)) stood at 3.1%.

As for `O=C(O)[C@H]1O[C@@H](Oc2cc3oc(-c4ccccc4)cc(=O)c3c(O)c2O)[C@H](O)[C@@H](O)[C@@H]1O` [PCM-0094823], the inhibition at 10 µM under setting [1] was 14.8%.

On to `COc1cc(CCC(C)=O)ccc1O` [PCM-0094824], for which the inhibition at 10 µM under setting [1] is -0.8%.

With `NC(Cc1c[nH]c2ccc(O)cc12)C(=O)O` (stereo not drawn) [PCM-0094825], the inhibition at 10 µM under setting [1] was -2.3%.

As for `O=C1c2c(O)cccc2[C@H]([C@@H]2O[C@H](CO)[C@@H](O)[C@H](O)[C@H]2O)c2cc(CO)cc(O)c21` [PCM-0094826], the inhibition at 10 µM under setting [1] was found to be 21%.

For `CC(C)(C)[C@]1(O)C[C@@H]2OC(=O)C[C@@]23C(=O)O[C@@H]2OC(=O)[C@H](O)[C@]213` [PCM-0094827], the inhibition at 10 µM (read-out: BTK inhibition (%)) is -6.2%.

For `C=C[C@H]1CN2CC[C@H]1C[C@H]2[C@H](O)c1ccnc2ccccc12` [PCM-0094829], under setting [1], the inhibition at 10 µM was -10.9%.

Take `COc1cc(C(C)=O)ccc1O` [PCM-0094831]: under setting [1], the inhibition at 10 µM came to 9%.

Consider `CN(C)CCc1ccc(O)cc1` [PCM-0094832], for which the inhibition at 10 µM under setting [1] was -21.8%.

For the compound `O=C1C(c2c(O)[nH]c3ccccc23)=Nc2ccccc21` [PCM-0094833], the inhibition at 10 µM under setting [1] came to 11%.

As to `CCN1C[C@]2(OC(=O)c3ccccc3NC(C)=O)CC[C@H](OC)[C@@]34[C@@H]2C[C@@H]([C@@H]13)[C@@]1(O)C[C@H](OC)[C@H]2C[C@@H]4[C@]1(O)[C@H]2OC` [PCM-0094835], the inhibition at 10 µM (read-out: BTK inhibition (%)) was 21%.

Regarding `O=c1cccc2n1C[C@@H]1CNC[C@H]2C1` [PCM-0094836], the inhibition at 10 µM under setting [1] was -10.1%.

Consider `CC(C)Oc1ccc2c(=O)c(-c3ccccc3)coc2c1` [PCM-0094837], for which the inhibition at 10 µM under setting [1] amounted to 17.9%.

In the case of `C[C@@H]1O[C@@H](O[C@H]2[C@H](Oc3cc(O)c(C(=O)CCc4ccc(O)cc4)c(O)c3)O[C@H](CO)[C@@H](O)[C@@H]2O)[C@H](O)[C@H](O)[C@H]1O` [PCM-0094838], the inhibition at 10 µM under setting [1] was determined as 14.8%.

Regarding `O=c1c(O)c(-c2ccc(O)c(O)c2)oc2cc(O)ccc12` [PCM-0094846], the inhibition at 10 µM under setting [1] was 46.7%.

Turning to `O=C1c2c(O)cc(O)cc2O[C@H](c2cc(O)c(O)c(O)c2)[C@H]1O` [PCM-0094847], the inhibition at 10 µM under setting [1] is -9%.

With `Nc1nc2c(ncn2[C@@H]2O[C@H](CO)[C@@H](O)[C@H]2O)c(=O)[nH]1` [PCM-0094848], the inhibition at 10 µM under setting [1] is 0%.

Consider `O=C1C=CC[C@@H]2[C@H]3CCCN4CCC[C@@H](CN12)[C@@H]34` [PCM-0094851], for which the inhibition at 10 µM under setting [1] amounted to 13.2%.

`C=CCc1ccc(O)c(-c2ccc(O)c(CC=C)c2)c1` [PCM-0094855]: the inhibition at 10 µM under setting [1] was determined as 37.9%.

For `COc1ccc(-c2oc3c(CC=C(C)C)c(O[C@@H]4O[C@H](CO)[C@@H](O)[C@H](O)[C@H]4O)cc(O)c3c(=O)c2O[C@@H]2O[C@@H](C)[C@H](O)[C@@H](O)[C@H]2O)cc1` [PCM-0094858], under setting [1], the inhibition at 10 µM is -0.8%.

In the case of `COc1ccc(-c2cc(=O)c3c(O)cc(O)cc3o2)cc1O` [PCM-0094859], the inhibition at 10 µM under setting [1] was 57.6%.

On to `Oc1cc2c(cc1O)[C@@H]1c3ccc(O)c(O)c3OC[C@]1(O)C2` [PCM-0094861], for which, under setting [1], the inhibition at 10 µM is -15.6%.

With `COc1cc2c(cc1OC)[C@@H]1Cc3ccc(OC)c(OC)c3CN1CC2` [PCM-0094863], the inhibition at 10 µM under setting [1] stood at 3.9%.

As for `O=c1[nH]cnc2c1ncn2[C@@H]1O[C@H](CO)[C@@H](O)[C@H]1O` [PCM-0094864], under setting [1], the inhibition at 10 µM was -3.1%.

As to `C=CCc1ccc(O)c(-c2cc(CC=C)ccc2O)c1` [PCM-0094865], the inhibition at 10 µM under setting [1] came out at 16.3%.

As for `O=C1CCC[C@@H]2[C@H]3CCCN4CCC[C@@H](CN12)[C@@H]34` [PCM-0094866], the inhibition at 10 µM under setting [1] stood at 11.7%.

Take `COc1cc(C=O)ccc1O` [PCM-0094868]: the inhibition at 10 µM under setting [1] is 21.8%.

With `COc1ccc(CCC(=O)c2c(O)cc(O[C@@H]3O[C@H](CO)[C@@H](O)[C@H](O)[C@H]3O[C@@H]3O[C@@H](C)[C@H](O)[C@@H](O)[C@H]3O)cc2O)cc1O` [PCM-0094869], the inhibition at 10 µM under setting [1] is 9.3%.

`CCC1(O)C(=O)OCc2c1cc1n(c2=O)Cc2cc3cc(O)ccc3nc2-1` (stereo not drawn) [PCM-0094873]: under “read-out: BTK inhibition (%)”, the inhibition at 10 µM is 6.2%.

As for `O=C1CCC[C@@H]2[C@H]3CCC[N@+]4([O-])CCC[C@@H](CN12)[C@@H]34` [PCM-0094874], the inhibition at 10 µM under setting [1] is -8.6%.

As for `OC[C@@H](O)[C@@H](O)[C@H](O)[C@H](O)CO` [PCM-0094876], the inhibition at 10 µM under setting [1] was -17.1%.

With `O=c1c(-c2ccc(O)cc2)coc2c([C@@H]3O[C@H](CO)[C@@H](O)[C@H](O)[C@H]3O)c(O)ccc12` [PCM-0094877], the inhibition at 10 µM under setting [1] was -0.8%.

Take `N=c1ccn2c(n1)O[C@H]1[C@H](O)[C@@H](CO)O[C@H]12` [PCM-0094879]: under setting [1], the inhibition at 10 µM came to 6.2%.

As to `COc1cc2c(Nc3ccc(NC(=O)c4ccccc4)cc3)ncnc2cc1OCCCN1CCOCC1` [PCM-0094881], the inhibition at 10 µM under setting [1] came out at 77.9%.

`OCCn1cc(-c2ccc3c(c2)CC/C3=N\O)c(-c2ccncc2)n1` [PCM-0094883]: the inhibition at 10 µM under setting [1] worked out at 16.6%.

For `C[C@]1(c2nc3c(C(N)=O)cccc3[nH]2)CCCN1` [PCM-0094885], the inhibition at 10 µM under setting [1] is -6.2%.

For the compound `NCC(=O)Nc1ccc(-n2nc(C(F)(F)F)cc2-c2ccc3c(ccc4ccccc43)c2)cc1` [PCM-0094886], the inhibition at 10 µM under setting [1] was 70.3%.

Turning to `CO[C@@H](C(=O)N1Cc2[nH]nc(NC(=O)c3ccc(N4CCN(C)CC4)cc3)c2C1)c1ccccc1` [PCM-0094888], the inhibition at 10 µM under setting [1] was determined as 85.5%.

Turning to `CN1CCN(CCOc2cc(OC3CCOCC3)c3c(Nc4c(Cl)ccc5c4OCO5)ncnc3c2)CC1` [PCM-0094889], the inhibition at 10 µM under setting [1] turned out to be 59.3%.

With `COc1cc(N2CCC(N3CCN(C)CC3)CC2)ccc1Nc1ncc(Cl)c(Nc2ccccc2S(=O)(=O)C(C)C)n1` [PCM-0094890], under setting [1], the inhibition at 10 µM is 88.5%.

In the case of `Cc1nc(C(=O)NCC(=O)O)c(O)c2ccc(Oc3ccccc3)cc12` [PCM-0094891], the inhibition at 10 µM under setting [1] was -5.4%.

(Values after paper PMC8041284, “Tunable Methacrylamides for Covalent Ligand Directed Release Chemistry” (Journal of the American Chemical Society, 2021).)
